For test [1], the system named is 95D. Description: Cell proliferation IC50, Crystal Violet assay. The note with it: 95D (Met); 72 h; single agent; mean ± SEM. Type of test: cell-based, human. The source says:
(§1) Exemplary Embodiments are generally performed as follows, unless otherwise noted. Simvastatin is purchased from Ark Pharm, Inc. (Arlington Heights, IL). Cisplatin (CIS) is purchased from MedKoo Biosciences, Inc. (Chapel Hill, NC). Dihydroartemisinin is purchased from TCI America (Portland, OR). All other chemicals and reagents are purchased from standard sources such as Sigma-Aldrich and/or VWR and are of highest quality available. Puromycin dihydrochloride was purchased from Alfa Aesar (Tewksbury, MA). Deionized water ([…]) used for making solutions is obtained from Milli-Q Direct Ultrapure Water System from Millipore (Billerica, MA, USA). All intermediates are characterized by 1H NMR and mass analysis and the purity of compounds are analyzed by HPLC. 1H NMR data are collected on Bruker 400 MHz spectrometers using standard parameters; chemical shifts are reported in ppm (δ) in reference to residual non-deuterated solvent. ESI mass spectroscopy analysis is performed using a Thermo Fisher LTQ Orbitrap Elite system. IC50 is the half maximal inhibitory concentration and determined is determined by crystal violet assay unless otherwise noted.
(§2) H446 is a SCLC cell line. […] Drugs tested and compared include CIS and DZ-CIS ester. Each drug is used as single agent.

Test [2] has as its system 95C. The test is described as follows: Cell proliferation IC50, Crystal Violet assay. Type of test: cell-based, human. The note with it: 95C (Non-Met); 72 h; single agent; mean ± SEM.
From the text: as §1, §2

In test [3] the test system is H446. Description: Cell proliferation IC50, Crystal Violet assay. It is filed as cell-based, human. The note with it: SCLC H446; 72 h; single agent; mean ± SEM.
From the text: as §1, §2

In test [4] the test system is YTMLC. Description: Cell proliferation IC50, Crystal Violet assay. It is filed as cell-based, human. The note with it: 72 h, single agent, mean ± SEM.
From the text: as §1, §2

Test [5] has as its system MIAPaCa II. The test is described as follows: Cancer cell growth IC50 / sensitization (crystal violet). The note with it: Example 15. Type of test: cell-based.
From the text: as §1
The crystal violet assay is performed as follows, unless otherwise noted. Cell lines are supplemented with RPMI 1640 medium, 10% fetal bovine serum, 1% PenStrep, and placed in a humidified atmosphere containing 5% CO2 at 37° C. 5,000 cells/well renal cancer cells and 10,000 cells/well lymphoma cells are seeded in 96 well plates in 100 microliter medium/per well for 24 h. […] Renal cancer cells are fixed with 3.7% paraformaldehyde for 15 minutes and are stained with Crystal violet solution (0.5% in 25% methanol) for 30 minutes. After rinsing with water cell layers are dried and decolorized with Sorenson citrate with shaking for 20 minutes. Light absorption of the extracted supernatant is read at 595 nm. Lymphoma cell growth was evaluated using MTT and cells are incubated for 4 hours. 100 microliters of isopropanol is added, and the extracted supernatant fraction is read at absorption maximum of 595 nm. […]

Test [6] deals with human kidney carcinoma cell lines (ACHN, Caki-1, 0-786, SKRC). Description: Growth IC50 in kidney carcinoma cell line panel. It is filed as cell-based. The note with it: all kidney cancer cell lines; 72 hours; read-out: IC50 across kidney cancer cell lines. As for the experimental part:
(§3) The crystal violet assay is performed as follows, unless otherwise noted. Cell lines are supplemented with RPMI 1640 medium, 10% fetal bovine serum, 1% PenStrep, and placed in a humidified atmosphere containing 5% CO2 at 37° C. 5,000 cells/well renal cancer cells and 10,000 cells/well lymphoma cells are seeded in 96 well plates in 100 microliter medium/per well for 24 h. […] Renal cancer cells are fixed with 3.7% paraformaldehyde for 15 minutes and are stained with Crystal violet solution (0.5% in 25% methanol) for 30 minutes. After rinsing with water cell layers are dried and decolorized with Sorenson citrate with shaking for 20 minutes. Light absorption of the extracted supernatant is read at 595 nm. Lymphoma cell growth was evaluated using MTT and cells are incubated for 4 hours. 100 microliters of isopropanol is added, and the extracted supernatant fraction is read at absorption maximum of 595 nm.
The significance for all results was p<0.0001.

In test [7] the test system is human lymphoma cell lines (Daudi, Raji, Namalwa, Ramos and CA-46). The test is described as follows: Growth IC50 in lymphoma cell line panel. Type of test: cell-based. Conditions: all lymphoma cell lines; 72 hours; read-out: IC50 across lymphoma cell lines. The procedure:
as §3

The test system of test [8] is OV90 and OVCA 433. The test is described as follows: Growth IC50 in ovarian cancer cell strains. It is filed as cell-based, human. Conditions: 72 h; read-out: IC50 across ovarian cancer cell strains OV90 and OVCA 433. As for the experimental part: OV90 and OVCA433 are grown in vitro according to their standard culturing conditions, and an assay such as the crystal violet assay is performed.

The test system of test [9] is ARCaP-E. The test is described as follows: Cancer cell growth IC50 (crystal violet). Conditions: Example 15. Type of test: cell-based. The method in brief:
(§4)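 IC50 values come from crystal violet staining of fixed cell layers, with dye extracted in Sorenson citrate and absorbance measured at 595 nm. Cultures in RPMI 1640 with 10% FBS are plated at 5,000–10,000 cells/well for 24 h at 37 °C before exposure.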

The test system of test [10] is HepG2. The test is described as follows: Cancer cell growth IC50 (crystal violet). It is filed as cell-based. The note with it: Example 15.
In test [11] the test system is C4-2B. The test is described as follows: Cancer cell growth IC50 (crystal violet). Type of test: cell-based. Conditions: Example 15. The method in brief:
as §4

The test system of test [12] is MCF-7. The test is described as follows: Cancer cell growth IC50 (crystal violet). It is filed as cell-based. Conditions: Example 15. Put shortly:
as §4

In test [13] the test system is C4-2. Description: Cancer cell growth IC50 (crystal violet). Conditions: Example 15; C4-2. It is filed as cell-based. The method in brief: as §4
Test [14] deals with LNCaP. Description: Cancer cell growth IC50 (crystal violet). Type of test: cell-based. Conditions: Example 15. Put shortly:
as §4

For test [15], the system named is PC3M. The test is described as follows: Cancer cell growth IC50 (crystal violet). Type of test: cell-based. The note with it: Example 15. The method in brief: as §4
For test [16], the system named is U87. The test is described as follows: Cancer cell growth IC50 (crystal violet). It is filed as cell-based. Conditions: Example 15. The method in brief: as §4
Test [17] concerns PC3. Description: Cancer cell growth IC50 (crystal violet). Type of test: cell-based. Conditions: Example 15. Put shortly:
as §4

Test [18] concerns FUOV-1. The test is described as follows: Cancer cell growth IC50 (crystal violet). Type of test: cell-based. The note with it: Example 15.
Test [19] concerns H358. The test is described as follows: Cancer cell growth IC50 (crystal violet). Type of test: cell-based. Conditions: Example 15.
For test [20], the system named is ARCaP-M. The test is described as follows: Cancer cell growth IC50 (crystal violet). It is filed as cell-based. Conditions: Example 15.

For the compound `N.N.[Cl][Pt][Cl]` [CIS, cis-diamminedichloridoplatinum (II)], the IC50 is more than 100 µM in test [1]; 12.7 ± 1 µM in test [2]; 107.3 ± 1 µM in [3]; 16.2 ± 1 µM in test [4]; more than 64 µM in test [5]; more than 64 µM in test [6]. For the same compound, the IC50 is more than 64 µM in test [7]; more than 64 µM in test [8]; more than 64 µM in test [9]; more than 64 µM in [10]; more than 64 µM in test [11]; 39.5 µM in test [12]. In addition, the IC50 was more than 64 µM in test [13]; more than 64 µM in test [14]; more than 64 µM in [15]; more than 64 µM in test [16]; 48.7 µM in [17]; 27.5 µM in [18]. Moreover, the IC50 in test [19] and in [20] was more than 64 µM in each case.
